Common to all, as to assay: kinome screen (33PanQinase)
Common to all, as to type: biochemical

One test concerns the target T1, MAPKAPK2 (Homo sapiens, UniProt P49137).
T1 construct: purchased Reaction Biology Europe GmbH (formerly ProQinase)
How it is done:
(§1) The Kinome Screening was performed by Reaction Biology Europe GmbH (http://reactionbiology.com; Freiburg i. Br., Germany).

The target in the next test is T2, TIE2 (Homo sapiens, UniProt Q02763).
T2 construct: purchased Reaction Biology Europe GmbH (formerly ProQinase)
How it is done: as §1

The target of a further test is T3, AKT1 (Homo sapiens, UniProt P31749).
T3 construct: purchased Reaction Biology Europe GmbH (formerly ProQinase)
On the procedure: as §1

A further test deals with T4, RIPK4 (Homo sapiens, UniProt P57078).
T4 construct: purchased Reaction Biology Europe GmbH (formerly ProQinase)
T4 sequence (P57078 1-832): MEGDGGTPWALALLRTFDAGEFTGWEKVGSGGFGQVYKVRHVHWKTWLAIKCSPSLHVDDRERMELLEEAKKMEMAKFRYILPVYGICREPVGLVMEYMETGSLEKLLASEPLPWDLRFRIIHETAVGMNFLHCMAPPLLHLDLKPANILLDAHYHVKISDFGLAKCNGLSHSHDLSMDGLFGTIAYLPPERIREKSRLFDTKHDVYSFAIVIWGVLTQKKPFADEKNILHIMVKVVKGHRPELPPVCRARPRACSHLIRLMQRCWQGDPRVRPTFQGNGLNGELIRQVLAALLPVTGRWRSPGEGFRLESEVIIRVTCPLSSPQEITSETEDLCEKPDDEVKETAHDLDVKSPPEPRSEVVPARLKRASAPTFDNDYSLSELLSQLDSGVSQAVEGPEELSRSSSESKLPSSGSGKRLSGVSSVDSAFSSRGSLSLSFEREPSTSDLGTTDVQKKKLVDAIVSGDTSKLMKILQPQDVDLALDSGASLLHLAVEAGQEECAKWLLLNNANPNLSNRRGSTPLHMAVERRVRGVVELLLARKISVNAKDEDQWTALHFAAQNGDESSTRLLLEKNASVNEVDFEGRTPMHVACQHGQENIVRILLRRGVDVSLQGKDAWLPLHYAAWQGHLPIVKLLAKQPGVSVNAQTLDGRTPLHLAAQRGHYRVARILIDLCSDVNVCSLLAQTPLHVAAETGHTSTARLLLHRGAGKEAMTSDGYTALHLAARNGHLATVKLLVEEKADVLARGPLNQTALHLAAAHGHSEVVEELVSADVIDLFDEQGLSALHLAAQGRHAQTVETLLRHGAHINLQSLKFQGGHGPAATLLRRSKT
How it is done:
as §1

Another test has as its target T5, ROCK2 (Homo sapiens, UniProt O75116).
T5 construct: purchased Reaction Biology Europe GmbH (formerly ProQinase)
On the procedure: as §1

For the next test, the target named is T6, PKCΔ (Homo sapiens, UniProt Q05655).
T6 construct: purchased Reaction Biology Europe GmbH (formerly ProQinase)
On the procedure:
as §1

The target in the next test is T7, MEKK3 (Homo sapiens, UniProt Q99759).
T7 construct: purchased Reaction Biology Europe GmbH (formerly ProQinase)
T7 sequence (Q99759 1-626): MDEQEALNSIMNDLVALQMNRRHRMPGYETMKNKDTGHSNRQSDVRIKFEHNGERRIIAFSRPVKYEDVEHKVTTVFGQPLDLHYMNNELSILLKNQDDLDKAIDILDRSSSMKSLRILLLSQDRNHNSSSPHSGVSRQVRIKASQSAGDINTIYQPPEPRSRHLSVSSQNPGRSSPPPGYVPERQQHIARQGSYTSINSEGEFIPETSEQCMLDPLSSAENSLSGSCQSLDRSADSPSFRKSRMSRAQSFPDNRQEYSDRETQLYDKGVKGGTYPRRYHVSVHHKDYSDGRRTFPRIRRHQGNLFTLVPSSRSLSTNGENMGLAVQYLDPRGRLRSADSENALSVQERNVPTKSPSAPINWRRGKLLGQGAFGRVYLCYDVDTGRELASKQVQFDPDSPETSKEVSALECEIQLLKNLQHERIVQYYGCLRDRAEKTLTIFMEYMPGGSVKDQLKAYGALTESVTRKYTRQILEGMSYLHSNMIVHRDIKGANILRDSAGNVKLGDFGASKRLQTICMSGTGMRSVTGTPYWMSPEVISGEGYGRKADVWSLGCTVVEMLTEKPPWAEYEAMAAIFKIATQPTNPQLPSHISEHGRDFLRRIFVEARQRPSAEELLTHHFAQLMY
On the procedure:
as §1

The next test concerns the target T8, DAPK2 (Homo sapiens, UniProt Q9UIK4).
T8 construct: purchased Reaction Biology Europe GmbH (formerly ProQinase)
On the procedure:
as §1

The next test concerns the target T9, MYLK3 (Homo sapiens, UniProt Q32MK0).
T9 construct: purchased Reaction Biology Europe GmbH (formerly ProQinase)
T9 sequence (Q32MK0 1-819): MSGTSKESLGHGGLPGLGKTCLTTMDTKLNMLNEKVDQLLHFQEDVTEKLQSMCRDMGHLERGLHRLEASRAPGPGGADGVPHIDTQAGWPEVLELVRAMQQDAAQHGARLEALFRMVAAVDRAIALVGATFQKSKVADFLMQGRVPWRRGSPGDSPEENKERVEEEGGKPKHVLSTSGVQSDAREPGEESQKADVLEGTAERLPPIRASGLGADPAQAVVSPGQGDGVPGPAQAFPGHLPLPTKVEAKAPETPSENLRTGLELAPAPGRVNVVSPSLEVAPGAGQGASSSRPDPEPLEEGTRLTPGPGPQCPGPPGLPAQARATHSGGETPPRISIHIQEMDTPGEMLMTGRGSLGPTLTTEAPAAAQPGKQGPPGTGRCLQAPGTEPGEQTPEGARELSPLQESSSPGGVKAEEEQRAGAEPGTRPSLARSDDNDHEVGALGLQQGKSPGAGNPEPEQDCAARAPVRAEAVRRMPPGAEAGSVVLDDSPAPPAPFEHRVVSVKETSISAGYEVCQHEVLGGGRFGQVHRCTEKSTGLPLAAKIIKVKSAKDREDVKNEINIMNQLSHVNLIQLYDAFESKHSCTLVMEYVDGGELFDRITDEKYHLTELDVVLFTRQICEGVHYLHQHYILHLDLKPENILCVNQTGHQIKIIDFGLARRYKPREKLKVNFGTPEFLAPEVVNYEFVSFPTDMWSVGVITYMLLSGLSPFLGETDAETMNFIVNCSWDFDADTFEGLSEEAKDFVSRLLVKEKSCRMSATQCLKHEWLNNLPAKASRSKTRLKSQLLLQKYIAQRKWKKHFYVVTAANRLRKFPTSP
How it is done:
as §1

A further test has as its target T10, STK33 (Homo sapiens, UniProt Q9BYT3).
T10 construct: purchased Reaction Biology Europe GmbH (formerly ProQinase)
How it is done:
as §1

SMILES strings stand for the structures.

T2 sequence (Q02763 23-1124): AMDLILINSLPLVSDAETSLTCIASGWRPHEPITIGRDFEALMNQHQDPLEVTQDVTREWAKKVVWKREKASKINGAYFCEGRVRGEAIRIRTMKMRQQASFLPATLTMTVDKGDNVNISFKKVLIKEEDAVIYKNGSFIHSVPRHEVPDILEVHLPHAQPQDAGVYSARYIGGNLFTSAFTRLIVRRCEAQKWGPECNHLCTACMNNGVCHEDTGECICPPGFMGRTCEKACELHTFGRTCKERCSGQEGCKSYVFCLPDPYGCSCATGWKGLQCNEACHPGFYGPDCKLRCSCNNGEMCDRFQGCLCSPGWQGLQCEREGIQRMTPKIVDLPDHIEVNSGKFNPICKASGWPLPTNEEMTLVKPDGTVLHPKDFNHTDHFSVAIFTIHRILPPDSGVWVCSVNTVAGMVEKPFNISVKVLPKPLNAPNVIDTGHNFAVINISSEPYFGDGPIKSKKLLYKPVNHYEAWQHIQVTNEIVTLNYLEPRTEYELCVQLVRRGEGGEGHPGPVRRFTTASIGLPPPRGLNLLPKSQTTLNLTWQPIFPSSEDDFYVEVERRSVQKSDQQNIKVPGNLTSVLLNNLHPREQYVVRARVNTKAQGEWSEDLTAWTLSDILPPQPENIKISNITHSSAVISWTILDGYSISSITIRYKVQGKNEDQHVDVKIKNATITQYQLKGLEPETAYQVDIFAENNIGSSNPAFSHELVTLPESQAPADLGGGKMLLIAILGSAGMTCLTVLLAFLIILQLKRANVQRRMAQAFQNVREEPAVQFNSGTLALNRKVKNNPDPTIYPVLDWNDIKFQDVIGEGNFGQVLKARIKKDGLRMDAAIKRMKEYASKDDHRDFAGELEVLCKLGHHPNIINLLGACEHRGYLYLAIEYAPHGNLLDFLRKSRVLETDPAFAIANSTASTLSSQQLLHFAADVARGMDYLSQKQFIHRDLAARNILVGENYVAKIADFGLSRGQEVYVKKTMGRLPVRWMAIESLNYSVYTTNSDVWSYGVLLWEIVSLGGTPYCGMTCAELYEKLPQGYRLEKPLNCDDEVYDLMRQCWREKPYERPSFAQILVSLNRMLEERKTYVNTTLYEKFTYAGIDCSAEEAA
T6 sequence (Q05655 whole entry, stated change not applied): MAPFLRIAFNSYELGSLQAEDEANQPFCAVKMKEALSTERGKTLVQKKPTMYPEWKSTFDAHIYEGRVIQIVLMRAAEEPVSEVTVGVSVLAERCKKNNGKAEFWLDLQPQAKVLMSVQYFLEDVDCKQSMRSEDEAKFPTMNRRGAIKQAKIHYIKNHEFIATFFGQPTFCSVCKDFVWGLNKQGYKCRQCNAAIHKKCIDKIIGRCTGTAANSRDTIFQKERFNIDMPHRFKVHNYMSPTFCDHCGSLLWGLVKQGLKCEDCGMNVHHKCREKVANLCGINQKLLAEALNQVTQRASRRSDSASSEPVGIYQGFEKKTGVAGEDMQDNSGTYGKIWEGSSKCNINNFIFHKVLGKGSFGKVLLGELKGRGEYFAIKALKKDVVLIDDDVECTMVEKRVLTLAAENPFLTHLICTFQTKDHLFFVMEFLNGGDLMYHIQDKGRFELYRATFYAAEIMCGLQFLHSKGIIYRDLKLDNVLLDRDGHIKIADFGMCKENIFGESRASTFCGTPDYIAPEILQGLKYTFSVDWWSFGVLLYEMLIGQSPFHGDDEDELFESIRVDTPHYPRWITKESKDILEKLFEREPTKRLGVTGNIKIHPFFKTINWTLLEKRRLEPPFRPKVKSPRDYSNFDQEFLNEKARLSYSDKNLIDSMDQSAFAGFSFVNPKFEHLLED
T5 sequence (O75116 whole entry): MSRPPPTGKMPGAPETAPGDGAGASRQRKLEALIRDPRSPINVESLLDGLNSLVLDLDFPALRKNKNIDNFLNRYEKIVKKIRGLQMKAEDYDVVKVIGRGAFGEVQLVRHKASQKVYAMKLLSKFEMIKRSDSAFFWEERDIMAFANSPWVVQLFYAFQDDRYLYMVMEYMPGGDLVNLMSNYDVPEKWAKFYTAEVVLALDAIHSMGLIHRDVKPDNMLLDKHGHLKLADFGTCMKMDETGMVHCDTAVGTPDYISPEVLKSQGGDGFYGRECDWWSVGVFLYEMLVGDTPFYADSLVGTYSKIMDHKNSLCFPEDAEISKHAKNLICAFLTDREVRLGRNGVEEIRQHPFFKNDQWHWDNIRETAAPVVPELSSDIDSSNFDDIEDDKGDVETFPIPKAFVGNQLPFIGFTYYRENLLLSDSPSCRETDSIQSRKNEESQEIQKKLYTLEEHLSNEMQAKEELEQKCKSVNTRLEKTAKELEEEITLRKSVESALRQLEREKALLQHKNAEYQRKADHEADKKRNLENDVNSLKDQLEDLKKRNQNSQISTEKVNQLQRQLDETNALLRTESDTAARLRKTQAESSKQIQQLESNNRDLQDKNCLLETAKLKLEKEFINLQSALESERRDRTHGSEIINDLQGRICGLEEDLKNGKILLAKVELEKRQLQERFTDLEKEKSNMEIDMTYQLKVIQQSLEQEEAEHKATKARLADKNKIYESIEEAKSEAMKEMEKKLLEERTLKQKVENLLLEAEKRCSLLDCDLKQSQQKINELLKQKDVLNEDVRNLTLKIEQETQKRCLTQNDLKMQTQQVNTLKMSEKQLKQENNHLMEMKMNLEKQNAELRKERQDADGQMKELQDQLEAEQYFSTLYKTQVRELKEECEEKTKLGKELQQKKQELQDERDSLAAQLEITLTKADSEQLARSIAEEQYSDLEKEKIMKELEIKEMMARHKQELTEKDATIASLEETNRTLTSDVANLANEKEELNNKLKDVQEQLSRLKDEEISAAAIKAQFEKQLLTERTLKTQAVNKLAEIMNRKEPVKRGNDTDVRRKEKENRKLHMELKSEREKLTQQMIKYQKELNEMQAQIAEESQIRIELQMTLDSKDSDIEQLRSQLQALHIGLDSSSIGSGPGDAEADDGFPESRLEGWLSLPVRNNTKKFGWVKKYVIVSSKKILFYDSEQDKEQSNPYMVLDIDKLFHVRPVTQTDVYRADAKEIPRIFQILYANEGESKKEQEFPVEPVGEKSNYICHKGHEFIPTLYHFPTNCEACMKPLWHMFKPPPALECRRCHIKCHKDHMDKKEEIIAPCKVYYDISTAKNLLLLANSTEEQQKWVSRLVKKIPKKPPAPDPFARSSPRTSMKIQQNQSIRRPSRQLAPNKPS
T3 sequence (P31749 whole entry): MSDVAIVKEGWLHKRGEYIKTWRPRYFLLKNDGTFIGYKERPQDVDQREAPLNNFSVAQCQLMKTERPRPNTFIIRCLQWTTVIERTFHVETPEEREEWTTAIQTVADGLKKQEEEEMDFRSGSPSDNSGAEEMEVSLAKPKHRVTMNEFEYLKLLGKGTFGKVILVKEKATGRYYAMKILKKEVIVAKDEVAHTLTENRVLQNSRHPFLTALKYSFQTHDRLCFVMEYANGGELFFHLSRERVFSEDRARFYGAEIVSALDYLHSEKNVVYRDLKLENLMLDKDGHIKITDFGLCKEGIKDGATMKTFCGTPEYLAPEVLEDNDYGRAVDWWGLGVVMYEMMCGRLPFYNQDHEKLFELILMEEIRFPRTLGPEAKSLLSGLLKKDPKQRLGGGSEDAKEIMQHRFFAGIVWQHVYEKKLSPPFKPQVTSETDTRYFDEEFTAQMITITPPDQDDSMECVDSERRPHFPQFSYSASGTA
T1 sequence (P49137 whole entry): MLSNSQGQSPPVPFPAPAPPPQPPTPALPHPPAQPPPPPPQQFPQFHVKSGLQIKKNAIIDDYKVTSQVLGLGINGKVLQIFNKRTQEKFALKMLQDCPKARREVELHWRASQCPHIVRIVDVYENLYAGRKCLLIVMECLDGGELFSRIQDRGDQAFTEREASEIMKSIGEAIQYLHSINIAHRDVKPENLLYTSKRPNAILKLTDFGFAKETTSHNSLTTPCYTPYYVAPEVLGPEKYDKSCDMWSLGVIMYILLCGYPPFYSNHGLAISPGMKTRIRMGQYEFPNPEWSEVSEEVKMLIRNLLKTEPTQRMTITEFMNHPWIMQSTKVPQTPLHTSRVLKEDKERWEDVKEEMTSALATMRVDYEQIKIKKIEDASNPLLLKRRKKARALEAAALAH
T8 sequence (Q9UIK4 whole entry): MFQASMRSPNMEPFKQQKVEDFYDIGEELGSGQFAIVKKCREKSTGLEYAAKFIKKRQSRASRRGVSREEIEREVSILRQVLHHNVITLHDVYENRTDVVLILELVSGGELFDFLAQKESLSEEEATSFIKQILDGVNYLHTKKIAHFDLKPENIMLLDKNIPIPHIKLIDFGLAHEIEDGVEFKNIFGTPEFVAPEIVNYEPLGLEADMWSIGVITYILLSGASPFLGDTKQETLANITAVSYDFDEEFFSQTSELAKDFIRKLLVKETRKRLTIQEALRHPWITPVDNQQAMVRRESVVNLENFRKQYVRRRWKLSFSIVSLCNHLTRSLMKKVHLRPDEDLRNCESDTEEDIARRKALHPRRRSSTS
T10 sequence (Q9BYT3 whole entry): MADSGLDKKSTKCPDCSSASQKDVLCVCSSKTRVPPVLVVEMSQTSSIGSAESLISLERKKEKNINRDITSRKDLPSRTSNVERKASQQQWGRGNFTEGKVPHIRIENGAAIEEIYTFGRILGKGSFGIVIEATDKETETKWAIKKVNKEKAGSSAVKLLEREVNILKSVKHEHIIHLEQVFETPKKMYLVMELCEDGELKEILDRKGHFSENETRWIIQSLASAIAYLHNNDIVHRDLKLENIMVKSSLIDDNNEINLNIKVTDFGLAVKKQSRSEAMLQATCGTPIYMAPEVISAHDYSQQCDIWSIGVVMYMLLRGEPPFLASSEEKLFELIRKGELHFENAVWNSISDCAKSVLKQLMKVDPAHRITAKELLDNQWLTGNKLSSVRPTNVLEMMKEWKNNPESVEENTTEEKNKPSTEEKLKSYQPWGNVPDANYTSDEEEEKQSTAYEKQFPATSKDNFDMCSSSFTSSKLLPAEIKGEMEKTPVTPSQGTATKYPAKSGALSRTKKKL

For the compound `c1ccc(CNc2cc(-c3c[nH]c4ncccc34)ccn2)cc1` [meriolin 36], the residual kinase activity is reported as 130 % of control at MAPKAPK2 (0.3 µM); 87 % of control on MAPKAPK2 (3 µM); 113 % of control on TIE2 (0.3 µM); 65 % of control at TIE2 (3 µM); 89 % of control at AKT1 (0.3 µM); 41 % of control on AKT1 (3 µM). In addition, the residual kinase activity at RIPK4 (0.3 µM) is 88 % of control; at RIPK4 (3 µM) it was 45 % of control; at ROCK2 (0.3 µM), 1 % of control; at ROCK2 (3 µM) it was 0 % of control; at PKCΔ (0.3 µM), 4 % of control; at PKCΔ (3 µM) it was 0 % of control. The residual kinase activity at MEKK3 (0.3 µM) was 66 % of control; at MEKK3 (3 µM), 26 % of control; at DAPK2 (0.3 µM), 118 % of control; at DAPK2 (3 µM) it was 67 % of control; at MYLK3 (0.3 µM), 71 % of control; at MYLK3 (3 µM), 21 % of control. Moreover, the residual kinase activity at STK33 (0.3 µM) is on record as 41 % of control; at STK33 (3 µM) it was 14 % of control.
For the compound `COc1ccnc2[nH]cc(-c3cc(N)nc(N)c3)c12` [meriolin 16], the residual kinase activity at MAPKAPK2 (0.3 µM) is on record as 95 % of control; at TIE2 (0.03 µM), 132 % of control; at TIE2 (0.3 µM), 105 % of control; on AKT1 (0.03 µM), 96 % of control; at AKT1 (0.3 µM) it was 70 % of control; at RIPK4 (0.03 µM), 94 % of control. Moreover, the residual kinase activity on RIPK4 (0.3 µM) is recorded as 75 % of control; at ROCK2 (0.03 µM), 12 % of control; on ROCK2 (0.3 µM) it was 1 % of control; at PKCΔ (0.03 µM), 47 % of control; at PKCΔ (0.3 µM), 6 % of control; at MEKK3 (0.03 µM), 106 % of control. Also, the residual kinase activity on MEKK3 (0.3 µM) is 90 % of control; on DAPK2 (0.03 µM) it was 106 % of control; at DAPK2 (0.3 µM) it was 78 % of control; at MYLK3 (0.03 µM), 119 % of control; at MYLK3 (0.3 µM), 77 % of control; on STK33 (0.03 µM) it was 73 % of control. For the same compound, at STK33 (0.3 µM), the residual kinase activity was 43 % of control.

The record behind these values is PMC11167047 (Cell Death Discovery, 2024).
